Entries after “also recorded” stand apart in the source; their conditions may differ.

This note sets out measurements from patent publication US20180153952A1, “COMPOSITIONS AND METHODS FOR TREATING POST OPERATIVE COGNITIVE DYSFUNCTION AND NEUROIN[…] ANNEXIN A1 (ANXA1) PEPTIDES” (Duke University, priority 2016, published 2018).

The test system of one test is SIRT3. Nature of the test: Hippocampal mitochondrial SIRT3 expression after orthopedic surgery. In kind it is in vivo. The settings on record: mice after orthopedic surgery, time-dependent.
A further test relates to IL-6. Nature of the test: Systemic IL-6 after orthopedic surgery. In kind it is in vivo. The settings on record: mice after orthopedic surgery. An excerpt: (§1) Systemic cytokines, including IL-6, are found elevated in patients developing delirium and POCD and may serve as potential biomarkers. […] N=4-5 (adult), N=1-5 (aged); **P<0.01. Two-way ANOVA with Multiple Comparisons.

The subject of a further test is NLRP3 inflammasome. As to the kind of experiment: NLRP3 expression/inflammasome activation in hippocampus after orthopedic surgery (Western blot). In kind it is in vivo, mice. The settings on record: for NLRP3 activation: ANXA1sp 1 mg/kg 30 min before surgery. On the procedure:
(§2) Representative Western Blot images in adult (12 weeks-old) and aged (20 months-old) C57BL/6 mice for NLRP3 (FIG. 18A), Caspase-1 (FIG. 18C), and IL1β (FIG. 18E) (three key components of the inflammasome complex) and quantification. […] Data are presented as mean±SD. […] One-way ANOVA with Multiple Comparisons.
Male C57BL/6 mice received ANXA1sp (1 mg/kg) 30 min before surgery. […] Data are presented as mean±SD. […] Two-way ANOVA with Multiple Comparisons.
On the technique in general: In western blotting, separated proteins are transferred to a membrane and probed.

The test system of test [1] is hippocampal ATP production. As to the kind of experiment: Hippocampal ATP production (ELISA) after orthopedic surgery. The test is classed as in vivo. The note with it: mice (13 weeks) after orthopedic surgery. On the procedure: (§3) Male C57BL/6 mice (13 weeks) were subjected to orthopedic surgery. Naïve animals (no surgery at 0 hour) were used as baseline-control. At 3, 6, and 24 hours of post-surgery, the total OXPHOS in hippocampus was determined by Western blot (FIG. 23A) and (FIG. 23B). Time-dependent increased hippocampal ATP production were determined by ELISA (FIG. 23C). […] Data are presented as mean±SD. N=4; **P<0.01, ***P<0.001. One-way ANOVA with Multiple Comparisons.
For orientation: In an ELISA, binding on a coated surface is turned into a signal by an enzyme label.

The subject of the next test is ANXA1. As to the kind of experiment: Hippocampal/brain ANXA1 levels after orthopedic surgery. The test is classed as in vivo, mice. An excerpt:
Surgery reduced levels of endogenous ANXA1 in the brain at 24 hr (FIG. 25A, FIG. 25B for quantification). […] N=3-4; **P<0.01, ***P<0.001. One-way ANOVA with Multiple Comparisons.

Another test concerns IL-1β. Nature of the test: IL-1β secretion in hippocampus after orthopedic surgery (Western blot). In kind it is in vivo, mice. On the procedure:
as §2
(§4) Male C57BL/6 mice received ANXA1sp (1 mg/kg) 30 min before surgery. Representative blots of Caspase-1 activation and IL1β secretion. […] Data are presented as mean±SD. N=4-5; *P<0.05, **P<0.01, ***P<0.001. Two-way ANOVA with Multiple Comparisons.

For the next test, the system named is citrate synthetase (CS). Nature of the test: Hippocampus citrate synthetase (CS, Western blot) after orthopedic surgery. The test is classed as in vivo. The settings on record: mice (13 weeks) after orthopedic surgery. On the procedure: Male C57BL/6 mice (13 weeks) were subjected to orthopedic surgery while naïve animals were as baseline-control. At 3, 6, and 24 hours of post-surgery, the hippocampus CS was determined by Western blot (FIG. 24A) and (FIG. 24B). […] Data are presented as mean±SD. N=4; **P<0.01, ***P<0.001, ****P<0.0001. One-way ANOVA with Multiple Comparisons.

Test [2] concerns cerebral microglia activation. Nature of the test: Microglia activation after orthopedic surgery (F4/80 immunostaining, stereological analysis). The test is classed as in vivo. The settings on record: mice after orthopedic surgery, ANXA1sp 1 mg/kg 1 hr before surgery, 24 hr post-surgery, F4/80 positive cells, vs untreated animals. As to the method:
Male C57BL/6 mice (12 weeks) were subjected to orthopedic surgery and treated with ANXA1sp (1 mg/kg) 1 hr before surgery. At 24 hr of post-surgery, brain levels of microglia activation was determined by immunostaining with a biomarker F4/80. Stereological analysis of F4/80 positive cells was shown in the bar graph. N=5 (Naïve), 10 (Surgery), and 4 (ANXA1sp). Data are presented as mean+SD. **P<0.01 vs. Naïve; #P<0.05 vs. Surgery. One-way ANOVA with Multiple Comparisons. (FIG. 13).

The next test relates to MPO. As to the kind of experiment: Plasma/systemic MPO levels after orthopedic surgery. In kind it is in vivo, mice.
Excerpt: as §1

For test [3], the system named is OXPHOS mitochondrial electron transport chain complexes. Nature of the test: Hippocampal total OXPHOS (Western blot) after orthopedic surgery. The test is classed as in vivo. The note with it: mice (13 weeks) after orthopedic surgery. As to the method:
as §3

A further test has as its system Caspase-1. As to the kind of experiment: Caspase-1 activation in hippocampus after orthopedic surgery (Western blot). The test is classed as in vivo, mice. On the procedure:
as §2, §4

Another test has as its system memory function. Nature of the test: "What-when-where" task of object recognition memory after orthopedic surgery. In kind it is in vivo, mice. An excerpt: After orthopedic surgery mice have reduced preferences for the replacement of objects (what), and for the original location of the displaced object (where); but they show a […] preference the order of presentation (when). […] Data are presented as mean±SD. N=10. *P<0.05 and **P<0.01 vs. surgery+vehicle using MANOVA. (FIG. 17).

[4] abbreviates: brain (hippocampus) of mice after orthopedic surgery.

For the substance Ac-Gln-Ala-Trp [ANXA1sp], in the test on SIRT3, the “hippocampal mitochondrial SIRT3 expression/activation” value is listed as “significantly increases/activates; also recorded: significantly higher expression”. The “systemic IL-6” value was “significantly reduced” with IL-6 and “reduced” in the test on IL-6 (listed as ANXA-1sp). Besides, the NLRP3 activation entry in the test on NLRP3 inflammasome (adult and aged mice, 24 hr after surgery) is “significantly reduced”; with NLRP3 inflammasome (aged mice, 6 hr after surgery) it was “significantly reduced”. Moreover, the “NLRP3 expression or NLRP3 inflammasome activation” value in the test with NLRP3 inflammasome (setting [4]) is reported as “inhibits; also recorded: significant inhibition; also recorded: reduces”. Moreover, the “hippocampal ATP production” value in test [1] is reported as “attenuated”. In the test with ANXA1 (24 hr after surgery, 1 mg/kg ANXA1sp), the “levels of ANXA-1 in the brain” value is “significantly increase”. In the test with ANXA1 (mice after orthopedic surgery), the “hippocampal ANXA1 levels” value is “significantly increased”. Besides, the “secreted IL1β” value in the test with IL-1β (adult mice after surgery, ANXA1sp 1 mg/kg 30 min before surgery) is on record as “no significance”. The “activation of IL-1β” value in the test with IL-1β (setting [4]) is “significantly inhibited”. Further, in the test with citrate synthetase (CS), the “numbers of CS (citrate synthetase, biomarker of numbers of mitochondria)” value was “significantly increased”. Besides, in test [2], the cerebral microglia activation result is on record as “significantly attenuated”. In addition, in the test on MPO (mice after orthopedic surgery, time-dependent), the “plasma levels of meloperoxidase (MPO)” value is “reduced; also recorded: significantly decreased”. In addition, in the test on MPO (mice, 24 hr after orthopedic surgery, listed as ANXA-1sp), the “systemic levels of MPO” value was “reduced”. For the same substance, the “hippocampal total OXPHOS, particularly complex IV” value in [3] is recorded as “significantly regulated”. Further, in the test with Caspase-1 (adult and aged mice after surgery, ANXA1sp 1 mg/kg 30 min before surgery), the “levels of Caspase-1” value is listed as “significantly reduced”. Also, the “activation of caspase-1” value in the test on Caspase-1 (setting [4]) is reported as “significantly inhibited”. The “memory deficits (what-when-where object recognition preference scores)” value with memory function (mice after orthopedic surgery, vs surgery+vehicle) was “significantly improves”. For the same substance, the “exploration of the displaced/replaced object” value in the test on memory function (surgery+ANXA1sp mice, vs original anchor object and two most recently seen objects) is given as “greater exploration”.
